Test results from patent US11964971B2, “Methods and compositions for modulating splicing” (Skyhawk Therapeutics, Inc., priority 2019, dated 2024).

How the values were obtained:
SMN protein = SMN protein assay (MSD) in SMA patient fibroblasts (GM03813); type: cell-based, human
How it was run: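 SMA patient fibroblasts GM03813 (7000 cells/well) treated 48 h with compounds from 2.5 μM to 0.6 nM. Lysate SMN protein quantified by MSD immunoassay against an SMN standard curve (1 to 19.5 μg/ml) on each plate, giving absolute amounts.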

[1] = system: MDR1-MDCK cell monolayers; settings: dog, MDCK-MDR1, 120 min, 5 μM, pH 7.4
Experimental: (§1) Experimental Procedure: MDR1-MDCK cell monolayers are grown to confluence on collagen-coated, microporous membranes in 12-well assay plates. The permeability assay buffer is Hanks' balanced salt solution containing 10 mM HEPES and 15 mM glucose at a pH of 7.4. The buffer in the receiver chamber also contained 1% bovine serum albumin. The dosing solution concentration is 5 μM of test article in the assay buffer. Cell monolayers are dosed on the apical side (A-to-B) or basolateral side (B-to-A) and incubated at 37° C. with 5% CO2 in a humidified incubator. Samples are taken from the donor and receiver chambers at 120 minutes. Each determination is performed in duplicate. The flux of lucifer yellow is also measured post-experimentally for each monolayer to ensure no damage was inflicted to the cell monolayers during the flux period. All samples are assayed by LC-MS/MS using electrospray ionization.
(§2) Analytical Method: Liquid Chromatography • Column: Waters ACQUITY UPLC BEH Phenyl 30×2.1 mm, 1.7 μm • M.P. Buffer: 25 mM ammonium formate buffer, pH 3.5 • Aqueous Reservoir (A): 90% water, 10% buffer • Organic Reservoir (B): 90% acetonitrile, 10% buffer • Flow Rate: 0.7 mL/minute • Gradient Program:
(§3) • Total Run Time: 1.00 minute • Autosampler: 2 μL injection volume • Wash1: water/methanol/2-propanol:1/1/1; with 0.2% formic acid • Wash2: 0.1% formic acid in water • Brain Penetration • Potential Classification: A-B Papp≥3.0 and Efflux Ratio<3.0: High • A-B Papp≥3.0 and 10>Efflux Ratio≥3.0: Moderate • A-B Papp≥3.0 and Efflux Ratio≥10: Low • A-B Papp<3.0: Low

MDR1 = test: in vitro; settings: dog; for Papp A→B at 120 min, 5 μM: MDCK-MDR1, pH 7.4, MDCK-MDR1: Papp A-B (10^−6, cm/s); for Papp B→A at 120 min, 5 μM: MDCK-MDR1, pH 7.4, MDCK-MDR1: Papp B-A (10^−6, cm/s)
Experimental: as §1, §2, §3

MDR1 (P-gp) = test: MDCK-MDR1 permeability assay, blood-brain-barrier penetration potential; settings: dog, MDCK-MDR1, pH 7.4, MDCK-MDR1 Efflux Ratio
Experimental: as §1, §2, §3

| SMILES | EC50 (SMN protein) [nM] | MDCK-MDR1: % Recov A-B (%) [1] [%] | MDCK-MDR1: % Recov B-A (%) [1] [%] | Papp A→B at 120 min, 5 μM (MDR1) [×10⁻⁶ cm/s] | Papp B→A at 120 min, 5 μM (MDR1) [×10⁻⁶ cm/s] | efflux ratio at 120 min, 5 μM (MDR1 (P-gp)) |
| --- | --- | --- | --- | --- | --- | --- |
| COc1cc(-c2ccc(-c3cnc(N(C)[C@@H]4C[C@@]5(C)CCC[C@](C)(N5)[C@@H]4F)cn3)c(O)c2)cnn1 [Compound 24E1, 2-(5-(((1S,2R,3R,5R)-2-fluoro-1,5-dimethyl-9-azabicyclo[3.3.1]nonan-3-yl)(methyl)amino)pyrazin-2-yl)-5-(6-methoxypyridazin-4-yl)phenol] | 101 to 500 | 40 | 42 | 1.93 | 5.01 | 3 |
| Oc1cc(-c2cn[nH]c2)ccc1-c1cnc(O[C@H]2CC3CC[C@@H](N3)[C@H]2F)cn1 (single isomer, unassigned) [Compound 1E1] | 501 to 10000 | 68 | 82 | 8.22 | 33.4 | 4 |
| COc1cc(-c2cc(O)c(-c3cnc(N(C)[C@@H]4CC5CC[C@H](N5)[C@@H]4F)cn3)cc2F)ccn1 (single isomer, unassigned) [Compound 30E1] | 501 to 10000 | 13 | 49 | 3.95 | 5.24 | 1 |
| Cn1ccc(-c2cc(O)c(-c3cnc(N(C4CC4)[C@@H]4CC5CC[C@H](N5)[C@@H]4F)cn3)cc2F)cc1=O (single isomer, unassigned) [Compound 38E1] | 501 to 10000 | 81 | 94 | 1.47 | 54.9 | 37 |
| CN(C)C(=O)c1cc(O)c(-c2cnc(N(C)[C@H]3C[C@@H]4CCC(N4)[C@H]3F)cn2)cc1F (single isomer, unassigned) [Compound 14E2] | 501 to 10000 | 87 | 88 | 0.91 | 59.1 | 65 |
| Cn1cnc(-c2cc(O)c(-c3cnc(N(C4CC4)[C@@H]4CC5CC[C@H](N5)[C@@H]4F)cn3)cc2F)cc1=O (single isomer, unassigned) [Compound 50E1] | 501 to 10000 | 82 | 92 | 1.59 | 46.4 | 29 |
| CN(c1cnc(-c2cc(F)c(-c3cnn(CF)c3)cc2O)cn1)[C@@H]1CC2CC[C@H](N2)[C@@H]1F (single isomer, unassigned) [Compound 29E1] | 16 to 50 | 38 | 56 | 6.29 | 17.2 | 3 |
| CN(c1cnc(-c2cc(F)c(-c3cnn(C)c3)cc2O)cn1)[C@@H]1CC2N[C@H](C1)CC2(F)F (single isomer, unassigned) [Compound 66E2] | 501 to 10000 | 43 | 55 | 22.7 | 18.3 | 1 |
| CN(c1cnc(-c2ccc(-c3cnn(C)c3)cc2O)cn1)[C@@H]1[C@H](F)[C@H]2CCC(N2)[C@@H]1F (single isomer, unassigned) [Compound 4E2] | 16 to 50 | 44 | 63 | 4.94 | 27.9 | 6 |
| COc1cc(-c2cc(O)c(-c3cnc(N(C)[C@@H]4CC5N[C@H](C4)CC5(F)F)cn3)cc2F)cnn1 (single isomer, unassigned) [Compound 67E2] | 501 to 10000 | 60 | 68 | 14.3 | 55.4 | 4 |
| COc1cc(-c2ccc(-c3cnc(N(C)[C@@H]4CC5COC[C@H](N5)[C@@H]4F)cn3)c(O)c2)cnn1 (single isomer, unassigned) [Compound 74E1] | 501 to 10000 | 88 | 98 | 1.87 | 45.5 | 24 |
| CN(c1cnc(-c2ccc(-c3ccn(C)c(=O)c3)cc2O)cn1)[C@H]1C[C@@H]2CCC(N2)[C@H]1F (single isomer, unassigned) [Compound 45E2] | 51 to 100 | 87 | 87 | 1.9 | 65.6 | 35 |
| CNC(=O)/C=C/c1cc(O)c(-c2cnc(N(C)[C@@H]3C[C@@]4(C)CC[C@](C)(N4)[C@@H]3F)cn2)cc1F [Compound 61E1, (E)-3-(2-fluoro-4-(5-(((1S,2R,3R,5R)-2-fluoro-1,5-dimethyl-8-azabicyclo[3.2.1]octan-3-yl)(methyl)amino)pyrazin-2-yl)-5-hydroxyphenyl)-N-methylacrylamide] | 16 to 50 | 86 | 95 | 1.97 | 57.4 | 29 |
| Cn1cc(-c2ccc(-c3cnc(N(C4CC4)[C@@H]4CC5CC[C@H](N5)[C@@H]4F)cn3)c(O)c2)cn1 (single isomer, unassigned) [Compound 49E1] | 501 to 10000 | 47 | 65 | 4.73 | 26.5 | 6 |
| CN(c1cnc(-c2ccc(-c3cnn(C)c3)cc2O)cn1)[C@@H]1CC2CC(F)(F)[C@@H](C1)N2 (single isomer, unassigned) [Compound 10E1] | 501 to 10000 | 59 | 86 | 22.9 | 26.1 | 1 |
| COc1cc(-c2cc(O)c(-c3cnc(N(C4CC4)[C@H]4C[C@@H]5CCC(N5)[C@H]4F)cn3)cc2F)ccn1 (single isomer, unassigned) [Compound 36E2] | 501 to 10000 | 10 | 40 | 0.59 | 1.3 | 2 |
| CN(c1cnc(-c2ccc(-c3cnn(CF)c3)cc2O)cn1)[C@H]1C[C@@H]2CCC(N2)[C@H]1F (single isomer, unassigned) [Compound 42E2] | 501 to 10000 | 44 | 60 | 5.95 | 31.8 | 5 |
| Cn1ccc(-c2cc(O)c(-c3cnc(N(C4CC4)[C@H]4C[C@@H]5CCC(N5)[C@H]4F)cn3)cc2F)cc1=O (single isomer, unassigned) [Compound 38E2] | 501 to 10000 | 82 | 82 | 1.75 | 57.7 | 33 |
| O=c1cc(-c2cc(O)c(-c3cnc(N(C4CC4)[C@@H]4CC5CC[C@H](N5)[C@@H]4F)cn3)cc2F)ccn1CF (single isomer, unassigned) [Compound 39E1] | 501 to 10000 | 70 | 89 | 2.1 | 64.2 | 31 |
| O=c1cc(-c2ccc(-c3cnc(N(C4CC4)[C@H]4C[C@@H]5CCC(N5)[C@H]4F)cn3)c(O)c2)ccn1CF (single isomer, unassigned) [Compound 54E2] | 501 to 10000 | 63 | 67 | 1.81 | 44 | 24 |
| Oc1cc(-n2ccnn2)c(F)cc1-c1cnc(N(C2CC2)[C@H]2C[C@@H]3CCC(N3)[C@H]2F)cn1 (single isomer, unassigned) [Compound 11E2] | 501 to 10000 | 69 | 72 | 6.21 | 41.1 | 7 |
| CN(c1cnc(-c2cc3oc(C(=O)N4CCC4)cc3cc2O)cn1)[C@@H]1CC2CC[C@H](N2)[C@@H]1F (single isomer, unassigned) [Compound 20E1] | 501 to 10000 | 83 | 101 | 2.71 | 56.4 | 21 |
| COc1cc(-c2ccc(-c3cnc(N(C)[C@H]4C[C@@H]5CCC(N5)[C@H]4F)cn3)c(O)c2)ccn1 (single isomer, unassigned) [Compound 43E2] | 16 to 50 | 12 | 49 | 0.98 | 1.35 | 1 |
| CN(c1cnc(-c2cc3ccc(OCF)nc3cc2O)cn1)[C@@H]1CC2CC[C@H](N2)[C@@H]1F (single isomer, unassigned) [Compound 19E1] | 501 to 10000 | 24 | 57 | 2.13 | 18.6 | 9 |
